Results from PubChem BioAssay AID1963837 (Molecular Pharmacology Branch, DTP, NCI, 2024).

The compounds below were run on 843126-344-R-J1-PDC complex spheroid viability (assay: Anticancer human tumor 843126-344-R-J1-PDC patient-derived melanoma cell line growth inhibition [POLQ]). Conditions: curve of first compound; second compound 0.0316 µM.
Experimental: Multicellular complex tumor spheroid response to Polymerase (POL) inhibitors (novobiocin, ART-558, RP6685) in combination with a variety of drugs and investigational agents in selected tumor cell lines
The POL inhibitors (novobiocin, ART-558, and RP6685) were evaluated both individually and in combination with standard of care and investigational anticancer small molecules within a complex spheroid model of solid tumors. . Complex spheroids include a stromal component modeled by human endothelial cells (HUVEC) and fibroblasts modeled by human mesenchymal stem cells (MSCs). The concentration ranges selected for each drug and investigational agent were based upon clinically achievable concentrations if the clinical Cmax of the agent was known.
Compounds. The drugs and investigational agents: novobiocin (NSC847541), ART-558 (NSC835418), RP-6685 (NSC848927), peposertib (NSC802822), ceralasertib (NSC780249), elimusertib (NSC800525), camonsertib (NSC841442), AZD-1390 (NSC803789), olaparib (NSC753686), talazoparib (NSC767125), rucaparib (NSC756644), sotorasib (NSC818433), MRTX-1133 (NSC836407), SN-38 (NSC673596), topotecan (NSC609699), epotoside (NSC141540), doxorubicin (NSC123127), gemcitabine (NSC613327), 5-fluorouracil (NSC19893), paclitaxel (NSC125973), vemurafenib (NSC761431), MSA-2 (NSC828583), SN-011 (NSC837082), adavosertib (NSC754352), prexasertib (NSC758257), carboplatin (NSC241240) and oxaliplatin (NSC266046), were obtained from the National Cancer Institute (NCI) Developmental Therapeutics Program Chemical Repository (21). The FDA-approved anticancer drug set is available from the Developmental Therapeutics Program at https://dtp.cancer.gov/organization/dscb/obtaining/. […] The stock solutions were prepared in dimethyl sulfoxide (DMSO, Sigma-Aldrich, St. Louis, MO, cat. D2650), except for the platinum compounds which were prepared in saline (Quality Biological, Gaithersburg, MD, cat. 114-055-101), at 800-fold the tested concentration and stored at -70 degrees C prior to their use. All drugs and investigational agents were tested over a range starting from a high concentration at or near the clinical Cmax and decreasing in half-log increments. If the clinical Cmax for an agent had not been determined, the highest concentration tested was 10 microM, except for SN-38, which was tested at a high concentration of 1 microM.
Cell Culture. All cells were maintained in an incubator at 37 degrees C and 5% CO2 with 95% humidity. The PDC lines were cultured according to standard operating procedures established by the NCI PDMR (https://pdmr.cancer.gov). Table 3 of the manuscript, lists the cell lines along with the number of the three cell types plated to form the mct-spheroids and media for tumor cell growth. After thawing, all PDC lines, except 997537-175-T-J1-PDC and 415267-285-R-J2-PDC, were cultured in Matrigel-coated flasks prepared with a working solution of 1X Ham's F-12 nutrient mix, without supplementation (Thermo Fisher Scientific, cat. 11765054), 100 U/mL penicillin-streptomycin (Thermo Fisher Scientific, cat. 15140122), and 2.5% Matrigel (Corning Inc., Corning, NY, cat. 354248) for the first three passages. The two PDC lines 997537-175-T-J1-PDC and 415267-285-R-J2-PDC were cultured on uncoated flasks. The 857933-349-R-J2-PDC line was cultured in 6C/Colon 1B media containing advanced DMEM/F-12 (Thermo Fisher Scientific, cat. 12634028), 10 mM HEPES (Thermo Fisher Scientific, cat. 15630080), 1X GlutaMAX supplement (Thermo Fisher Scientific, cat. 35050061), 0.1 mg/mL primocin (InvivoGen, San Diego, CA, cat. ant-pm-2), 10% defined fetal bovine serum, heat inactivated (HyClone Laboratories Inc., Logan, UT, cat. SH30070.03HI), 50% L-WRN conditioned media (ATCC, cat. CRL-3276), 1.25 mM N-Acetyl-L-cysteine (Sigma-Aldrich, cat. A9165), 10 mM nicotinamide (Sigma-Aldrich, cat. N0636), 1X B-27 supplement (Thermo Fisher Scientific, cat. 17504044), 1X N-2 supplement (Thermo Fisher Scientific, cat. […]
`CC1COCCN1c1cc(-c2ccnn2C)c2ccnc(-c3ccn[nH]3)c2n1` (stereo unspecified) + Cc1cccc(N(C)C(=O)C2C(O)CCN2c2nc(C)cc(C(F)(F)F)c2C#N)c1 showed an IC50 of 1970 nM. With `CC1COCCN1c1cc(C2(O)CC3CCC(C2)O3)c2cnn(-c3ccn[nH]3)c2n1` (stereo unspecified) + Cc1cccc(N(C)C(=O)C2C(O)CCN2c2nc(C)cc(C(F)(F)F)c2C#N)c1 the IC50 was 487 nM. Work on `CC1COCCN1c1cc(C2(S(C)(=N)=O)CC2)nc(-c2ccnc3[nH]ccc23)n1` (stereo unspecified) + Cc1cccc(N(C)C(=O)C2C(O)CCN2c2nc(C)cc(C(F)(F)F)c2C#N)c1 yielded an IC50 greater than 10000 nM. With `COc1cccc(OCCCN)c1-c1cc(Nc2cnc(C#N)cn2)n[nH]1` + Cc1cccc(N(C)C(=O)C2C(O)CCN2c2nc(C)cc(C(F)(F)F)c2C#N)c1 the IC50 was 96.1 nM.

Same assay, conditions: curve of first compound; second compound 0.1 µM
`CC1COCCN1c1cc(-c2ccnn2C)c2ccnc(-c3ccn[nH]3)c2n1` (stereo unspecified) + Cc1cccc(N(C)C(=O)C2C(O)CCN2c2nc(C)cc(C(F)(F)F)c2C#N)c1 gave an IC50 of 1300 nM. `CC1COCCN1c1cc(C2(O)CC3CCC(C2)O3)c2cnn(-c3ccn[nH]3)c2n1` (stereo unspecified) + Cc1cccc(N(C)C(=O)C2C(O)CCN2c2nc(C)cc(C(F)(F)F)c2C#N)c1 showed an IC50 of 470 nM. Compound `CC1COCCN1c1cc(C2(S(C)(=N)=O)CC2)nc(-c2ccnc3[nH]ccc23)n1` (stereo unspecified) + Cc1cccc(N(C)C(=O)C2C(O)CCN2c2nc(C)cc(C(F)(F)F)c2C#N)c1 has an IC50 greater than 10000 nM. For `COc1cccc(OCCCN)c1-c1cc(Nc2cnc(C#N)cn2)n[nH]1` + Cc1cccc(N(C)C(=O)C2C(O)CCN2c2nc(C)cc(C(F)(F)F)c2C#N)c1, the IC50 was 82.4 nM.

Same assay, conditions: curve of first compound; second compound 0.316 µM
For `CC1COCCN1c1cc(-c2ccnn2C)c2ccnc(-c3ccn[nH]3)c2n1` (stereo unspecified) + Cc1cccc(N(C)C(=O)C2C(O)CCN2c2nc(C)cc(C(F)(F)F)c2C#N)c1, the IC50 was 2070 nM. `CC1COCCN1c1cc(C2(O)CC3CCC(C2)O3)c2cnn(-c3ccn[nH]3)c2n1` (stereo unspecified) + Cc1cccc(N(C)C(=O)C2C(O)CCN2c2nc(C)cc(C(F)(F)F)c2C#N)c1 was tested, and the IC50 was 580 nM. In the case of `CC1COCCN1c1cc(C2(S(C)(=N)=O)CC2)nc(-c2ccnc3[nH]ccc23)n1` (stereo unspecified) + Cc1cccc(N(C)C(=O)C2C(O)CCN2c2nc(C)cc(C(F)(F)F)c2C#N)c1, the IC50 is reported as greater than 10000 nM. `COc1cccc(OCCCN)c1-c1cc(Nc2cnc(C#N)cn2)n[nH]1` + Cc1cccc(N(C)C(=O)C2C(O)CCN2c2nc(C)cc(C(F)(F)F)c2C#N)c1 gave an IC50 of 157 nM.

Same assay, conditions: curve of first compound; second compound 1 µM
`CC1COCCN1c1cc(-c2ccnn2C)c2ccnc(-c3ccn[nH]3)c2n1` (stereo unspecified) + Cc1cccc(N(C)C(=O)C2C(O)CCN2c2nc(C)cc(C(F)(F)F)c2C#N)c1 gave an IC50 of 1580 nM. `CC1COCCN1c1cc(C2(O)CC3CCC(C2)O3)c2cnn(-c3ccn[nH]3)c2n1` (stereo unspecified) + Cc1cccc(N(C)C(=O)C2C(O)CCN2c2nc(C)cc(C(F)(F)F)c2C#N)c1 showed an IC50 of 385 nM. Compound `CC1COCCN1c1cc(C2(S(C)(=N)=O)CC2)nc(-c2ccnc3[nH]ccc23)n1` (stereo unspecified) + Cc1cccc(N(C)C(=O)C2C(O)CCN2c2nc(C)cc(C(F)(F)F)c2C#N)c1 has an IC50 greater than 10000 nM. In the case of `COc1cccc(OCCCN)c1-c1cc(Nc2cnc(C#N)cn2)n[nH]1` + Cc1cccc(N(C)C(=O)C2C(O)CCN2c2nc(C)cc(C(F)(F)F)c2C#N)c1, the IC50 is reported as 125 nM.

Same assay, conditions: curve of first compound; second compound 3.16 µM
`CC1COCCN1c1cc(-c2ccnn2C)c2ccnc(-c3ccn[nH]3)c2n1` (stereo unspecified) + Cc1cccc(N(C)C(=O)C2C(O)CCN2c2nc(C)cc(C(F)(F)F)c2C#N)c1 showed an IC50 of 1660 nM. Compound `CC1COCCN1c1cc(C2(O)CC3CCC(C2)O3)c2cnn(-c3ccn[nH]3)c2n1` (stereo unspecified) + Cc1cccc(N(C)C(=O)C2C(O)CCN2c2nc(C)cc(C(F)(F)F)c2C#N)c1 has an IC50 of 640 nM. `CC1COCCN1c1cc(C2(S(C)(=N)=O)CC2)nc(-c2ccnc3[nH]ccc23)n1` (stereo unspecified) + Cc1cccc(N(C)C(=O)C2C(O)CCN2c2nc(C)cc(C(F)(F)F)c2C#N)c1 gave an IC50 greater than 10000 nM. Compound `COc1cccc(OCCCN)c1-c1cc(Nc2cnc(C#N)cn2)n[nH]1` + Cc1cccc(N(C)C(=O)C2C(O)CCN2c2nc(C)cc(C(F)(F)F)c2C#N)c1 has an IC50 of 79.9 nM.

Same assay, conditions: curve of first compound; second compound 10 µM
`CC1COCCN1c1cc(-c2ccnn2C)c2ccnc(-c3ccn[nH]3)c2n1` (stereo unspecified) + Cc1cccc(N(C)C(=O)C2C(O)CCN2c2nc(C)cc(C(F)(F)F)c2C#N)c1 gave an IC50 of 1870 nM.
